Measurements: patent publication US20170038384A1, “TREATMENT OF TUMORS EXPRESSING MUTANT P53” (SLOAN-KETTERING INSTITUTE FOR CANCER RESEARCH, priority 2014, published 2017)

Assays:
[1] = test system: human A2.1 pancreatic cancer cells; test: MTS assay of A2.1 cell viability; format: cell-based
Description: (§1) FIG. 5B is a graph of MTS assay (E490) of murine KPC and human A2.1 cells treated with crenolanib with various doses for 72 hours. Normalized values are expressed as means±SD form quadruple replicates.
(§2) All cell lines were maintained in DMEM+10% FBS, at 37° C. in 5% CO2. Stable cell lines expressing shRNAs were generated by retroviral mediated gene transfer. Briefly, Phoenix or Ampho packaging cells (for murine or human cell lines, respectively) were transfected by the calcium phosphate method with vectors expressing NF-YA, NF-YB, p53, p73, PDGFRa, PDGFRb or Renilla-control shRNAs, and the generated viruses were harvested to infect KPC, KPflC, or a series of human pancreatic, breast, lung and colon cancer cell lines. Infected cells were selected with puromycin and experiments were carried out on derived cell populations. To generate cells stably expressing mutant p53, p73 or PDGFRb, KPflC cells were infected with MSCV-p53-R175H, -R273H, PDGFRb or pcDNA3-HA-p73α and selected in puromycin and G418 respectively to yield stable pools.

PDGFRb [2] = biological target: T1, PDGFRb (Mus musculus, UniProt P05622); test: PDGFRb phosphorylation in KPC cells (immunoprecipitation, phospho-Tyrosine western blot); format: cell-based
T1 construct: endogenous in cells; host or cells: murine KPC pancreatic cancer cell line (Kras G12D, p53 R172H, Pdx1-Cre)
T1 sequence (P05622 32-1098): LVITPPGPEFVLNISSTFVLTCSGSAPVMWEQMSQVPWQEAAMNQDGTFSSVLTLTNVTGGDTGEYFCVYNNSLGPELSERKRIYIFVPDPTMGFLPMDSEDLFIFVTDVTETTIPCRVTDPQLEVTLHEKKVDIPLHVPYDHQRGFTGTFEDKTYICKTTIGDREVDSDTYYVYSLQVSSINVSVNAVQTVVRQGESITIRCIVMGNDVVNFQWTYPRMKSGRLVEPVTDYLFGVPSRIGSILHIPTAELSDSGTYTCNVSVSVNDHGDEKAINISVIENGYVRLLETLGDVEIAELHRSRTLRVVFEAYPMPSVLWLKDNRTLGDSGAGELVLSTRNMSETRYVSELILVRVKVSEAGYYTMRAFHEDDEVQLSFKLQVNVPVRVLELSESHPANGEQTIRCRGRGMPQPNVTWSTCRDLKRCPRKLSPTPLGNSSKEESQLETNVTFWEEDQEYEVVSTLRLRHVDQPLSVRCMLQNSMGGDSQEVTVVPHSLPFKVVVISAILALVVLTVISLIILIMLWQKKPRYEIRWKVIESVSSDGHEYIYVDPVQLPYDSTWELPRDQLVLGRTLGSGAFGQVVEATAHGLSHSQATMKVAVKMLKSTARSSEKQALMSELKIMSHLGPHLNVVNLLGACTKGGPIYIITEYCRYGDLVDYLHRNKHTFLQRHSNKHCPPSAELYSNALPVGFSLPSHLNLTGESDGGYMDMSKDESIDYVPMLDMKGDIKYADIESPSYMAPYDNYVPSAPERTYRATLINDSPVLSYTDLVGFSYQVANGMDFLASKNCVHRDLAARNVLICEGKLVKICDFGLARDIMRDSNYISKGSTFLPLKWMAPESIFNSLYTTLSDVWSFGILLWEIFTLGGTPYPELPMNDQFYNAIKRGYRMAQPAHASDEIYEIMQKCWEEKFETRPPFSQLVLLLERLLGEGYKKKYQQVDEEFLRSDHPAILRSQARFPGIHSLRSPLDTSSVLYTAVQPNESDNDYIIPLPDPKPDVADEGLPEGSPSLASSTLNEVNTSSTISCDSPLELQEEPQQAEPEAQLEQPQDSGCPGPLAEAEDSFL
Description: FIG. 5C depicts immunoprecipitation of PDGFRb from KPC cells starved for 12 hours, treated with either increasing doses of crenolanib or DMSO for 4 hours and subsequently stimulated with 50 ng/ml of PDGF-BB recombinant protein. Protein levels of PDGFRb, phospho-Tyrosine and Tubulin were determined by western blotting.
Protein levels of PDGFRb, phospho-Tyrosine and Tubulin were determined by western blotting.
FIG. 12E depicts immunoprecipitation of PDGFRb from KPC cells treated with DMSO or crenolanib (300 nM) for different time periods. The input protein levels for PDGFRb, phospho-Tyrosine, and Actin and those present in immunoprecipitates for phospho-Tyrosine were determined by western blotting.
To measure levels of endogenously phosphorylated PDGFRb, KPC cells were treated with the drug as described and harvested in phospho-lysis buffer (50 mM Tris pH 7.5, 1% Tween-20, 200 mM NaCl, 0.2% NP-40, phosphatase inhibitors [2.5 mM Sodium pyrophosphate, 1 mM β-Glycerophosphate, 1 mM Na3VO4], and protease inhibitors [Roche]).

KPC cells [3] = test: Lung colonization assay after tail vein injection of drug-pretreated KPC cells; format: in vivo, mouse
Text: FIG. 5E (left panel) are representative merged brightfield/GFP imaged of whole lung as well as H&E stains of representative sections of pulmonary lobes after tail vein injection of crenolanib- or DMSO-treated KPC cells into mice. FIG. 5E (right panel) is a graph of quantification of total number of lung metastatic nodules in individual mouse (at least six mice per each group). Data are represented as mean±SD.
FIG. 6B (left panel) are representative merged brightfield/GFP images of whole lung. FIG. 6B (middle panel) are H&E stainings of representative sections of pulmonary lobes. […] FIG. 6B (right panel) is a graph of quantification of total number of lung metastatic nodules in individual mouse (at least six mice per each group. Data are represented as mean±SD.
(§3) All animal experiments were performed in accordance with a protocol approved by the Memorial Sloan-Kettering Institutional Animal Care and Use Committee. For colonization studies, KPC cells (1×10^5) were resuspended in 200 μl PBS and injected intravenously into the tail vein of 8 week-old female athymic nude mice. Lungs were harvested 7 days post injection and analyzed for colonization by GFP positivity (Nikon SMZ1500) and histology.

KPC cells [4] = test: Propidium Iodide staining of KPC cells treated overnight; format: cell-based, mouse; conditions: KPC cells pretreated overnight
PDGFRb [5] = biological target: T2, PDGFRb (Homo sapiens, UniProt P09619); test: Western blotting for phospho-PDGFRb in A2.1 cells; format: cell-based; conditions: 0.3 μM
T2 construct: Western blotting for phospho-PDGFRb, PDGFRb, and Actin in human A2.1 cells; endogenous in cells; host or cells: human A2.1 pancreatic cancer cell line (mutant p53 155P)
T2 sequence (P09619 33-1106): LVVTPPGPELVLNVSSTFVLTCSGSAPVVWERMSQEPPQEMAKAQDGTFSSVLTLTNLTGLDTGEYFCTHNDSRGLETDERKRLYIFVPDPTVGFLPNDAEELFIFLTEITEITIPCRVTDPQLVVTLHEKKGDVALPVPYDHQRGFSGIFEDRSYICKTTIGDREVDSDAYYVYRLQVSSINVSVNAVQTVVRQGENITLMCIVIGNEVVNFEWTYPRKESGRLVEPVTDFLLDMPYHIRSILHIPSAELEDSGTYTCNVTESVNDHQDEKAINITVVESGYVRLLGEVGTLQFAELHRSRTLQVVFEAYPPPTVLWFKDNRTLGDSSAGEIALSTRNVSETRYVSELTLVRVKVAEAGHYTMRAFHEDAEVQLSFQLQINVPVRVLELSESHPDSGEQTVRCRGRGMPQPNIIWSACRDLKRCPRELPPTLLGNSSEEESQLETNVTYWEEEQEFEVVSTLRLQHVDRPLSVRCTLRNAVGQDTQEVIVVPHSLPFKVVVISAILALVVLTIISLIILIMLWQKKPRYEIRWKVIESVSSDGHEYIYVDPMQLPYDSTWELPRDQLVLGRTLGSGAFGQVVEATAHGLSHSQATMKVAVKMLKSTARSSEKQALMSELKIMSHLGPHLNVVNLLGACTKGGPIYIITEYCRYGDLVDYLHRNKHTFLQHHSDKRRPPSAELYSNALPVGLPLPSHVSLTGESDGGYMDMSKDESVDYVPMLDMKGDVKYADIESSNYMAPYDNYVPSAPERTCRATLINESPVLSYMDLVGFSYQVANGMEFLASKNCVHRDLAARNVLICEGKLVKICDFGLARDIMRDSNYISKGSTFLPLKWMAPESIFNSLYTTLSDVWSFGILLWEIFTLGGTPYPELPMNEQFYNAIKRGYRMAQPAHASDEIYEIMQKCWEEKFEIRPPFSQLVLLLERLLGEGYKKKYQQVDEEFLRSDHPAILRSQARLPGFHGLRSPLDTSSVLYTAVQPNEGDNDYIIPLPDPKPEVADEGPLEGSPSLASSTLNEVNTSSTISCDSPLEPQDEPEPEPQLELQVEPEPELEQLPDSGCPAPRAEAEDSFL
Text: FIG. 12D depicts Western blotting for phospho-PDGFRb, PDGFRb, and Actin in human A2.1 cells after treatment with DMSO or crenolanib at varying doses.

A2.1 cells = test: Three-dimensional collagen invasion assay, A2.1 cells; format: cell-based, human; conditions: 300 nM
Description: Images were analyzed using Imaris software.

[6] = test system: murine KPC pancreatic cancer cells; test: MTS assay of KPC cell viability/proliferation; format: cell-based, mouse
Description: as §1
Normalized values are expressed as means±SD form quadruple replicates.
as §2

KPC cells [7] = test: Three-dimensional collagen invasion assay, KPC cells
Description: FIG. 5D (left panel) is a graph of quantification of invasion of murine KPC and human A2.1 treated with either DMSO or crenolanib at 300 nM. Values are means±SD of 9 replicates from one representative experiment.
In brief, 24-well transwell inserts (Greiner bio-one) were lined with collagen type 1 (BD Biosciences), and cells were seeded on the inverted inserts. The lower chambers were filled with medium containing 0.5% FBS and upper chambers containing the collagen matrix were filled with medium containing 20% FBS and the chemoattractant HGF.
Invasion assay inserts were fixed using 4% formaldehyde and stained using DAPI and Alexa568 phalloidin (Invitrogen) before confocal microscopy (Perkin Elmer Spinning Disk) was conducted. Images were analyzed using Imaris software.

KPflC cells = test: Lung colonization assay after tail vein injection of drug-pretreated KPflC cells; format: in vivo, mouse; conditions: same concentration as for KPC cells
Description: FIG. 12G (left panel) depicts representative merged brightfield/GFP images of pulmonary lobes after tail vein injection of crenolanib- or DMSO-treated KPflC cells into mice. FIG. 12G (middle panel) depicts H&E stainings of representative sections of pulmonary lobes. FIG. 12G (right panel) is a graph of quantification of total number of lung metastatic nodules in individual mouse (at least six mice per each group). Data are represented as mean±SD.
as §3

KPC mice = test: Treatment of KPC mice (PDAC mouse model): tumor, survival and metastasis; format: in vivo
Text: (§4) FIG. 6D is a graph of quantification of the number of mice with metastatic disease at the time of death. Values are percentages of the total number of mice in each cohort. Colored columns represent mice with metastases (METS) and white columns represent disease-free (DF) animals.
as §4, with “FIG. 6E is a” for “FIG. 6D is a”, “mice with lung, lymph nodes or liver metastatic disease” for “mice with metastatic disease”
Strains were maintained on mixed background. […] Organs and tumors were removed and fixed in 10% buffered formalin and tumor and metastatic burden was assessed by gross pathology and histology.

PDGFRb [8] = biological target: T1, PDGFRb; test: phospho-PDGFRb in pancreatic tumors of treated KPC mice (immunofluorescence); format: in vivo; conditions: 50 mg/kg oral gavage twice daily
Description: DAPI, blue; CK8, red and p-PDGFRb, green. […] 15 images were analyzed per tumor (n=7). Tissues were fixed overnight in formalin, embedded in paraffin, and cut into 5-μm thick sections. Sections were subjected to hematoxylin and eosin staining, and immunohistochemical and immunofluorescent staining following standard protocols. The following primary antibodies were used: mouse anti-GFP (Cell Signaling), rabbit anti-p-PDGFR-β ([MUT]) (Santa Cruz Biotechnology) and rat anti-CK8 (DSHB). […] Images were acquired using a Zeiss Axio Imager D1 scope.

[9] = 50 mg/kg oral gavage twice daily

Structure (SMILES)	toxicity ([1]; A2.1 cells, 0.3 μM)	IC50 ([1]; Pancreatic cancer cell, human A2.1 cells, MTS assay, 72 hours, read-out: IC50, inhibiting the viability) [µM]	inhibition of PDGFRb activity, as measured by phospho-PDGFRb (PDGFRb [2]; 0.3 μM)	time of drug treatment to strong target inhibition (PDGFRb [2]; time course, 300 nM) [min]	lung nodules compared to controls pre-treated with DMSO (KPC cells [3]; KPC cells pretreated overnight, injected intravenously)	viability of the injected cell population (KPC cells [4])	inhibition of PDGFRb activity, as measured by phospho-PDGFRb (PDGFRb [5])	invasion relative to cells treated with DMSO (A2.1 cells)	toxicity ([6]; KPC cells, 0.3 μM)	IC50 ([6]; Mus musculus, Pancreatic cancer cell, murine KPC cells, MTS assay, 72 hours, read-out: IC50, inhibiting the viability) [µM]	invasion relative to cells treated with DMSO (KPC cells [7]; 300 nM)	metastatic potential in lung colonization assay (KPflC cells)	anti-metastatic effect across organs (liver, lymph nodes and lung) (KPC mice; [9])	occurrence of metastasis (KPC mice; [9])	overall survival (KPC mice; 50 mg/kg oral gavage twice daily from 8 weeks of age)	incidence of metastasis (KPC mice; 50 mg/kg oral gavage twice daily, GFP fluorescence and histopathology, 92% in vehicle-treated animals) [%]	PDGFRb tyrosine phosphorylation (PDGFRb [2]; 3 uM)	potential to colonize the lungs of recipient athymic mice (KPC cells [3]; pre-treatment of KPC cells)	invasive potential in vitro (KPC cells [7]; 3 μM vs DMSO)	levels of phospho-PDGFRb in the tumor cells of primary tumors (PDGFRb [8])
CC1(COc2ccc3c(c2)ncn3-c2ccc3cccc(N4CCC(N)CC4)c3n2)COC1 [crenolanib, Crenolanib]	no toxicity was observed	8.5	Strong inhibition	≤ 10	significantly fewer lung nodules	no effect on the viability	Strong inhibition	substantially reduced invasion	no toxicity was observed	13.1	substantially reduced invasion	did not reduce the metastatic potential	–	–	–	–	–	–	–	–
Cc1ccc(NC(=O)c2ccc(CN3CCN(C)CC3)cc2)cc1Nc1nccc(-c2cccnc2)n1 [imatinib]	–	–	–	–	–	–	–	–	–	–	–	–	anti-metastatic effect was observed	striking reduction in the occurrence of metastasis	no impact	15	strongly reduced PDGFRb tyrosine phosphorylation	decreased their potential to colonize the lungs	significantly reduced the invasive potential	reduced levels of phospho-PDGFRb
